# Laboratory results as given in patent US6613762B2, “Gambogic acid, analogs and derivatives as activators of caspases and inducers of apoptosis” (Cytovia, Inc., priority 1999, dated 2003).
# Columns and labels:
# KB cell line = settings: reported by Lin et al., Magn. Reson. Chem. 31:340-347 (1993); cited from earlier work
# [1] = system: caspase activity, PC-3 cells; test: Caspase induction and its inhibition by caspase inhibitor (Example 97), PC-3; assay type: cell-based, human; set-up: key to Inhibition of caspase activity by Inhibitor: The caspase activity detected was inhibited by the caspase inhibitor (+)
# Procedure: (§1) T47D, ZR-75, PC3, SHP-77 and A-549 cells were maintained and harvested as described in Example 90. Cells were added to 96-well plates as described in Example 90. The cells were treated with 10 μM gambogic acid, in the presence and in the absence of 10 μM caspase inhibitor cbz-Val-Asp-fmk (Cytovia, Inc.; WO99/18781). The plate was incubated up to 24 h at 37° C in a 5% CO2-95% humidity incubator. Caspase activity was determined by addition of a fluorogenic substrate as described in Example 90.
# (§2) Gambogic acid induced caspase activity in a ratio of greater than 2.5 (+) above untreated cell levels in all the tested cancer cell lines (Table IV). The caspase activity detected was inhibited by the caspase inhibitor (+), confirming that the fluorescent signal was due to caspase activity.
# [2] = system: poly(ADP)ribose polymerase (PARP) cleavage, PC3 cells; test: PARP cleavage western blot, PC3 cells; assay type: cell-based, human; settings: 5 μM, 4 h (FIG. 5D)
# Procedure: (§3) Cleavage of the enzyme poly(ADP)ribose polymerase (PARP) by caspase-3 and related proteases is considered to be one of the molecular hallmarks of caspase-mediated apoptosis. Therefore, the ability of gambogic acid to induce PARP cleavage in four different human tumor cell lines (Jurkat cells, HL-60 cells, T47D cells and PC3 cells) was determined.
# (§4) Cells were cultured in complete growth medium containing 10% FBS and treated with gambogic acid at concentrations of 2.5 μM or 5 μM for 2 to 4 h. Control cultures were treated with a drug vehicle (DMSO), or the well-characterized apoptosis inducer, staurosporine. At the end of the apoptosis induction period, the cells were harvested, washed once with PBS, quick-frozen on dry ice, and stored at −80° C. The cells were then lysed in a standard immunoblotting lysis buffer and samples of the lysates were electrophoresed on 4% to 20% gradient polyacrylamide gels. The proteins in the gels were then transferred to PVDF membranes and probed with a commercially-available rabbit polyclonal antibody to PARP.
# [3] = system: human small cell lung cancer cell line SHP-77; test: Inhibition of cell proliferation (GI50) and cell death (LC50), SHP-77; assay type: cell-based; settings: SHP-77, 48 h
# Procedure: T47D, ZR-75-1, PC-3, human prostate cancer cell line DU-145, human non-small cell lung cancer cell line A-549, human small cell lung cancer cell line SHP-77, HL-60 and MRC-5 cells were grown and harvested as in Example 90. […] The samples were mixed by agitation and incubated at 37° C. for 2-4 h in a 5% CO2-95% humidity incubator. […] This determines the possible background absorbance of the test compounds. No absorbance for gambogic acid or its analogs or derivatives was found at 490 nm. After the 2-4 h incubation, the samples were read for absorbance as above (ATest).
# Baseline for GI50 (dose for 50% inhibition of cell proliferation) and LC50 (dose for 50% cell death) of initial cell numbers was determined by adding an aliquot of 90 μl of cells or 90 μl of media, respectively, to wells of a 96-well microtiter plate containing 10 μl of a 10% DMSO in RPMI-1640 media solution. […] The samples were mixed by agitation and incubated at 37° C. for 2-4 h in a 5% CO2-95% humidity incubator. Absorbance was read as above, (AT=0) defining absorbance for initial cell number used as baseline in GI50 determinations and (Amin) defining absorbance for media alone used as baseline in LC50 determinations.
# GI50 (dose for 50% inhibition of cell proliferation)
# LC50 (dose for 50% cell death)
# 50=100×[(ATest−Amin)/(AT=0−Amin)]
# T47D breast cancer cells = test: Nuclear fragmentation in T47D breast cancer cells (Syto16 stain); assay type: cell-based, human; settings: 10 μM, 24 h (FIG. 2B)
# Procedure: T47D cells were grown and plated as described in Example 90. The cells were treated with 10 μM of gambogic acid and the plate was incubated for up to 24 h at 37° C. in a 5% CO2-95% humidity incubator. At 24 h, the cells were incubated with a live cell nucleic acid stain, Syto16 (Molecular Probes) which stains DNA. After 2 washes with PBS, cells were examined under a fluorescence microscope. […] Nuclear fragmentation is a clear indicator of cellular apoptosis.
# KB-V1 cell line = settings: reported by Lin et al., Magn. Reson. Chem. 31:340-347 (1993); cited from earlier work
# [4] = system: caspase activity, T47D cells and MRC-5 cells; test: Dose response of caspase activation in T47D versus normal fibroblasts MRC-5; assay type: cell-based, human; settings: 2 h incubation, two-fold serial dilutions (FIG. 4)
# Procedure: T47D cells and MRC-5 cells were maintained and harvested as described in Example 90. An aliquot of 45 μl of cells was added to each well of a 96-well microtiter plate. To determine the dose response of gambogic acid for inducing caspase activity, 5 μl of 20 μM gambogic acid in RPMI media was added to wells in triplicates. Two-fold serial dilutions were made for the lower concentrations. After incubation for 2 h, the samples were removed from the 5% CO2-95% humidity incubator and caspase activity was determined by addition of a fluorogenic substrate as described in Example 90.
# T47D cells = test: Morphological change of T47D cells (phase contrast); assay type: cell-based, human; settings: 2.5 μM
# Procedure: In addition, apoptotic adherent cells in culture lose their ability to remain attached to the culture dish. The ability of gambogic acid to trigger these morphological changes in T47D cells was investigated.
# 60 mm culture dishes were seeded with 750,000 T47D cells and the cultures were incubated under normal growth conditions (complete medium with 10% FBS) for 24 h. The cells were then treated with 2.5 μM of gambogic acid and further incubated under normal growth conditions for 2 or 6 h. Morphological changes were documented by photographing the cells under phase contrast illumination.
# [5] = system: caspase activity, ZR-75 cells; test: Caspase induction and its inhibition by caspase inhibitor (Example 97), ZR-75; assay type: cell-based, human; set-up: key to Inhibition of caspase activity by Inhibitor: The caspase activity detected was inhibited by the caspase inhibitor (+)
# Procedure: as §1, §2
# [6] = system: poly(ADP)ribose polymerase (PARP) cleavage, T47D cells; test: PARP cleavage western blot, T47D cells; assay type: cell-based, human
# Procedure: as §3, §4
# [7] = system: poly(ADP)ribose polymerase (PARP) cleavage, Jurkat cells; test: PARP cleavage western blot, Jurkat cells; assay type: cell-based, human; settings: 2.5 μM, 2 h (FIG. 5A)
# Procedure: as §3, §4
compound,measurement,setting,value
"CC(C)=CCC[C@]1(C)C=Cc2c(O)c3c(c(CC=C(C)C)c2O1)O[C@]12C(=C[C@@H]4C[C@H]1C(C)(C)O[C@@]2(C/C=C(/C)C(=O)O)C4=O)C3=O [Example 1, Gambogic Acid]",Cytotoxicity against KB cell line,KB cell line,cytotoxic
same,Inhibition of caspase activity by Inhibitor,"[1]; PC-3, 10 μM gambogic acid with 10 μM caspase inhibitor cbz-Val-Asp-fmk",+
same,Caspase activity,"[1]; PC-3, 10 μM gambogic acid, up to 24 h",+ (Gambogic acid induced caspase activity in a ratio of greater than 2.5 (+) above untreated cell levels)
same,PARP cleavage,[2],a moderate amount of PARP cleavage product
same,GI50,[3]; read-out: GI50 (dose for 50% inhibition of cell proliferation),500 nM
same,CC50,[3]; read-out: LC50 (dose for 50% cell death),500 nM
same,Nuclear fragmentation (Syto16 nuclear staining),T47D breast cancer cells,condensed and fragmented nuclei in a large population of the cells
same,Cytotoxicity against KB-V1 cell line,KB-V1 cell line,cytotoxic
same,Sensitivity of T47D to induction of caspase activity relative to MRC-5 (dose response),[4],more sensitive to induction of caspase activity than a normal fibroblast cell line MRC-5
same,Morphological change of T47D cells,T47D cells; 2 h (FIG. 1B),"many of the cells have taken on a rounded, phase-bright morphology"
same,Morphological change of T47D cells,T47D cells; 6 h (FIG. 1C),most of the cells in the culture are rounded up and are beginning to detach from the dish
same,Inhibition of caspase activity by Inhibitor,"[5]; ZR-75, 10 μM gambogic acid with 10 μM caspase inhibitor cbz-Val-Asp-fmk",+
same,Caspase activity,"[5]; ZR-75, 10 μM gambogic acid, up to 24 h",+ (Gambogic acid induced caspase activity in a ratio of greater than 2.5 (+) above untreated cell levels)
same,PARP cleavage,"[6]; 2.5 μM and 5 μM, 4 h (FIG. 5C)",almost complete PARP cleavage
same,PARP cleavage,"[6]; 2.5 μM, 2 h (FIG. 5C)",moderate induction of PARP cleavage
same,PARP cleavage,"[6]; 5 μM, 2 h (FIG. 5C)",almost complete PARP cleavage
same,PARP cleavage,[7],almost complete PARP cleavage
